These results are taken from patent US9561231B2 (AbbVie Inc., priority 2012, dated 2017).

Like-named read-outs stand apart in the source and are kept apart here. A value given as a limit tells only on which side of the number the result lay.

Assay [1] addresses T1, second (BD2: amino acids E352-E168) bromodomain of BRD4 (Homo sapiens, UniProt O60885).
T1 construct: protocol
In words: TR-FRET bromodomain binding assay, BRD4 BD2. Conditions: Ki calculated from IC50, probe Kd and probe concentration, read-out: TR-FRET Binding Ki: BRD4 (BDII_E352-M457). The procedure, abridged:
(§1)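 Displacement of Alexa647-labeled BET-inhibitor probe from His-tagged bromodomain, TR-FRET read-out; buffer 20 mM Na phosphate pH 6.0, 50 mM NaCl, 0.01% Triton X-100. IC50 by 4PL fit; Ki calculated from IC50, probe Kd and probe concentration.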

For assay [2], the target named is T2, first (BD1: amino acids K57-E168) bromodomain of BRD4 (Homo sapiens, UniProt O60885).
T2 construct: His-tagged first (BD1: amino acids K57-E168)
In words: TR-FRET bromodomain binding assay, BRD4 BD1. Conditions: Ki calculated from IC50, probe Kd and probe concentration, read-out: TR-FRET Binding Ki: BRD4 (BDI_K57-E168). The procedure, abridged: as §1

[3] abbreviates: TR-FRET assay protocol (A-G, compound concentration range).
Where [4] appears, read: TR-FRET assay protocol (D, E or G) per compound.

Broadly, the Ki is the dissociation constant of the complex between target and ligand, obtained from inhibition or displacement. For the compound `CCOc1cc(=O)n(C)cc1-c1cc(NS(=O)(=O)C[C@]23CC[C@H](CC2=O)C3(C)C)ccc1Oc1ccc(F)cc1F` [Example 310, N-[4-(2,4-difluorophenoxy)-3-(4-ethoxy-1-methyl-6-oxo-1,6-dihydropyridin-3-yl)phenyl]-1-[(1S,4R)-7,7-dimethyl-2-oxobicyclo[2.2.1]hept-1-yl]methanesulfonamide], the values for the Ki in assay [1] (setting [3]) and in assay [2] (setting [3]) were 0.0389 µM and 0.2 µM, respectively.
In the same order, the values of `Cn1nc(-c2ccccc2Oc2ccccn2)ccc1=O` [Example 6, 2-methyl-6-[2-(pyridin-2-yloxy)phenyl]pyridazin-3(2H)-one] are 3.17 µM and 4.08 µM.
As for `Cn1nc(-c2ccccc2Oc2ccccc2)c(-c2cccc(C(=O)NC3CC3)c2)cc1=O` [Example 177, N-cyclopropyl-3-[1-methyl-6-oxo-3-(2-phenoxyphenyl)-1,6-dihydropyridazin-4-yl]benzamide], the inhibitory constant (Ki) in assay [1] (setting [3]) was 1.07 µM; in assay [2] (setting [3]) it was 4.17 µM.
Turning to `Cn1nc(-c2ccccc2Oc2ccccc2)c(-c2cccc(CN3CCOCC3)c2)cc1=O` [Example 141, 2-methyl-5-[3-(morpholin-4-ylmethyl)phenyl]-6-(2-phenoxyphenyl)pyridazin-3(2H)-one], the Ki in assay [1] (setting [3]) is 0.297 µM; in assay [2] (setting [3]), 0.526 µM.
The matching figures for `Cn1nc(-c2ccccc2Oc2ccccc2)c(-c2ccc(N3CCNCC3)nc2)cc1=O` [Example 151, 2-methyl-6-(2-phenoxyphenyl)-5-[6-(piperazin-1-yl)pyridin-3-yl]pyridazin-3(2H)-one]: 0.258 µM and 0.4 µM.
Turning to `COc1cnccc1-c1cc(=O)n(C)nc1-c1ccccc1Oc1ccccc1` [Example 213, 5-(3-methoxypyridin-4-yl)-2-methyl-6-(2-phenoxyphenyl)pyridazin-3(2H)-one], the Ki was 15.2 µM in assay [1] (setting [3]) and over 13 µM in assay [2] (setting [3]).
Regarding `COCCNC(=O)c1ccc(-c2cc(=O)n(C)nc2-c2ccccc2Oc2ccccc2)cc1` [Example 173, N-(2-methoxyethyl)-4-[1-methyl-6-oxo-3-(2-phenoxyphenyl)-1,6-dihydropyridazin-4-yl]benzamide], the Ki is 0.545 µM in assay [1] (setting [3]) and 0.805 µM in assay [2] (setting [3]).
Consider `CCOc1cc(=O)n(C)cc1-c1cc(NS(=O)(=O)c2ccc(Cl)cc2Cl)ccc1Oc1ccc(F)cc1F` [Example 417, 2,4-dichloro-N-[4-(2,4-difluorophenoxy)-3-(4-ethoxy-1-methyl-6-oxo-1,6-dihydropyridin-3-yl)phenyl]benzenesulfonamide], for which the Ki in assay [1] (setting [4]) was 0.0571 µM; in assay [2] (setting [4]), 0.259 µM.
Turning to `COC(=O)c1ccccc1-c1cc(=O)n(C)nc1-c1ccccc1Oc1ccccc1` [Example 126, methyl 2-[1-methyl-6-oxo-3-(2-phenoxyphenyl)-1,6-dihydropyridazin-4-yl]benzoate], the Ki is over 22.2 µM in assay [1] (setting [3]) and 9.34 µM in assay [2] (setting [3]).
In the same order, the values of `CCOc1cc(=O)n(C)cc1-c1cc(NS(=O)(=O)c2ccc(Cl)cc2F)ccc1Oc1ccc(F)cc1F` [Example 348, 4-chloro-N-[4-(2,4-difluorophenoxy)-3-(4-ethoxy-1-methyl-6-oxo-1,6-dihydropyridin-3-yl)phenyl]-2-fluorobenzenesulfonamide] are 0.0631 µM and 0.196 µM.
In the same order, the values of `COc1cc(=O)n(C)nc1-c1ccccc1OCCC1CCCCC1` [Example 42, 6-[2-(2-cyclohexylethoxy)phenyl]-5-methoxy-2-methylpyridazin-3(2H)-one] are over 22.2 µM and over 12.6 µM.
In the same order, the values of `COc1cc(=O)n(C)nc1-c1ccccc1Oc1ccc(C#N)cc1` [Example 32, 4-[2-(4-methoxy-1-methyl-6-oxo-1,6-dihydropyridazin-3-yl)phenoxy]benzonitrile] are 12.2 µM and 5.32 µM.
As for `Cn1nc(-c2ccccc2Oc2ccccc2)c(-c2ccc(C(=O)NC3CC3)cc2)cc1=O` [Example 114, N-cyclopropyl-4-[1-methyl-6-oxo-3-(2-phenoxyphenyl)-1,6-dihydropyridazin-4-yl]benzamide], the results for the Ki in assay [1] (setting [3]) and in assay [2] (setting [3]) were 0.184 µM and 0.328 µM, respectively.
In the same order, the values of `CN(C)CCCNC(=O)c1ccc(-c2cc(=O)n(C)nc2-c2ccccc2Oc2ccccc2)cc1` [Example 150, N-[3-(dimethylamino)propyl]-4-[1-methyl-6-oxo-3-(2-phenoxyphenyl)-1,6-dihydropyridazin-4-yl]benzamide] are 0.411 µM and 0.471 µM.
For the compound `CC1CCN(C(=O)c2cccc(-c3cc(=O)n(C)nc3-c3ccccc3Oc3ccccc3)c2)CC1` [Example 154, 2-methyl-5-{3-[(4-methylpiperidin-1-yl)carbonyl]phenyl}-6-(2-phenoxyphenyl)pyridazin-3(2H)-one], the inhibition constant Ki is 5.94 µM in assay [1] (setting [3]) and 11.9 µM in assay [2] (setting [3]).
In the same order, the values of `COc1ccc(-c2cc(=O)n(C)nc2-c2ccccc2Oc2ccccc2)cc1F` [Example 203, 5-(3-fluoro-4-methoxyphenyl)-2-methyl-6-(2-phenoxyphenyl)pyridazin-3(2H)-one] are 1.52 µM and 3.51 µM.
The matching figures for `CCN(CC)C(=O)c1cccc(-c2cc(=O)n(C)nc2-c2ccccc2Oc2ccccc2)c1` [Example 160, N,N-diethyl-3-[1-methyl-6-oxo-3-(2-phenoxyphenyl)-1,6-dihydropyridazin-4-yl]benzamide]: 10.2 µM and 8.54 µM.
The matching figures for `Cc1n[nH]c(C)c1-c1cc(=O)n(C)nc1-c1ccccc1Oc1ccccc1` [Example 115, 5-(3,5-dimethyl-1H-pyrazol-4-yl)-2-methyl-6-(2-phenoxyphenyl)pyridazin-3(2H)-one]: 6.94 µM and 11.1 µM.
Regarding `COc1cc(=O)n(C)nc1-c1ccccc1OCc1ccc2[nH]ncc2c1` [Example 41, 6-[2-(1H-indazol-5-ylmethoxy)phenyl]-5-methoxy-2-methylpyridazin-3(2H)-one], the Ki was over 20.3 µM in assay [1] (setting [3]) and over 12.9 µM in assay [2] (setting [3]).
The matching figures for `CNC(=O)c1cccc(-c2cc(=O)n(C)nc2-c2ccccc2Oc2ccccc2)c1` [Example 128, N-methyl-3-[1-methyl-6-oxo-3-(2-phenoxyphenyl)-1,6-dihydropyridazin-4-yl]benzamide]: 0.376 µM and 1.64 µM.
As to `COC(=O)COc1cc(=O)n(C)nc1-c1ccccc1Oc1ccccc1` [Example 38, methyl{[1-methyl-6-oxo-3-(2-phenoxyphenyl)-1,6-dihydropyridazin-4-yl]oxy}acetate], the results for the Ki in assay [1] (setting [3]) and in assay [2] (setting [3]) were 6.83 µM and 6.35 µM, respectively.
The matching figures for `Cc1cc(-c2cc(=O)n(C)nc2-c2ccccc2Oc2ccccc2)ccn1` [Example 205, 2-methyl-5-(2-methylpyridin-4-yl)-6-(2-phenoxyphenyl)pyridazin-3(2H)-one]: 2.97 µM and 2.83 µM.
In the same order, the values of `CC(=O)N1CCC(c2cc(=O)n(C)nc2-c2ccccc2Oc2ccccc2)CC1` [Example 89, 5-(1-acetylpiperidin-4-yl)-2-methyl-6-(2-phenoxyphenyl)pyridazin-3(2H)-one] are 3.89 µM and 8.1 µM.
The matching figures for `COc1cc(=O)n(C)nc1-c1ccccc1OCC1CCN(C(=O)OC(C)(C)C)CC1` [Example 43, tert-butyl 4-{[2-(4-methoxy-1-methyl-6-oxo-1,6-dihydropyridazin-3-yl)phenoxy]methyl}piperidine-1-carboxylate]: over 22.2 µM and over 5.82 µM.
As for `Cn1nc(-c2ccccc2Oc2ccccc2)c(-c2ccc(Cc3ccccc3)cc2)cc1=O` [Example 93, 5-(4-benzylphenyl)-2-methyl-6-(2-phenoxyphenyl)pyridazin-3(2H)-one], the results for the Ki in assay [1] (setting [3]) and in assay [2] (setting [3]) were 3.24 µM and over 13 µM, respectively.
On to `Cn1nc(-c2ccccc2Oc2ccccc2)c(-c2ccc(C(=O)NCCC#N)cc2)cc1=O` [Example 165, N-(2-cyanoethyl)-4-[1-methyl-6-oxo-3-(2-phenoxyphenyl)-1,6-dihydropyridazin-4-yl]benzamide], for which the Ki was 0.492 µM in assay [1] (setting [3]) and 0.567 µM in assay [2] (setting [3]).
With `Cn1nc(-c2ccccc2Oc2ccccc2)c(-c2ccc(NCc3ccccc3)nc2)cc1=O` [Example 164, 5-[6-(benzylamino)pyridin-3-yl]-2-methyl-6-(2-phenoxyphenyl)pyridazin-3(2H)-one], the Ki in assay [1] (setting [3]) was 0.245 µM; in assay [2] (setting [3]), 1.51 µM.
In the same order, the values of `COc1ccc(-c2cc(=O)n(C)nc2-c2ccccc2Oc2ccccc2)c(OC)n1` [Example 125, 5-(2,6-dimethoxypyridin-3-yl)-2-methyl-6-(2-phenoxyphenyl)pyridazin-3(2H)-one] are 16 µM and over 13 µM.
In the same order, the values of `Cn1nc(-c2ccccc2Oc2ccccc2)c(-c2ccc3c(ccn3C)c2)cc1=O` [Example 208, 2-methyl-5-(1-methyl-1H-indol-5-yl)-6-(2-phenoxyphenyl)pyridazin-3(2H)-one] are 1.51 µM and 0.901 µM.
In the same order, the values of `CCOc1cc(=O)n(C)cc1-c1cc(NS(=O)(=O)c2ccc(OC(F)(F)F)cc2)ccc1Oc1ccc(F)cc1F` [Example 308, N-[4-(2,4-difluorophenoxy)-3-(4-ethoxy-1-methyl-6-oxo-1,6-dihydropyridin-3-yl)phenyl]-4-(trifluoromethoxy)benzenesulfonamide] are 0.0659 µM and 0.318 µM.
